We go through two compounds from article PMC6413339 (EBioMedicine, 2019).

In data set [1] the target is FLT3-ITD (Homo sapiens, UniProt P36888, ITD). Nature of the data set: Cell-free kinase assay, dose-response (Reaction Biology, ADP-Glo). It is filed as biochemical. Conditions: FLT3-ITD 100 nM; ATP 100 μM; read-out: IC50 against FLT3-ITD. The method, then:
(§1) Cell-free kinase activity assays were performed at Reaction Biology Corporation. Briefly, kinases were incubated with substrates, 100 μM ATP and a 3-fold serial dilution of compounds starting at 1 μM. DMSO was used as control. […] Experiments were performed in duplicates. The concentrations of kinases and substrates used in the assays are indicated on Table S1. Kinase activity was quantified using the ADP-Glo™ Kinase Assay System (Promega, Madison, WI) following the manufacturer's recommendations.
On the technique in general: ADP-Glo turns the ADP formed in a reaction into a luminescent signal.

Data set [2] has as its system MV4–11-luc cells. Nature of the data set: In vivo efficacy, orthotopic human AML model. Conditions: for reduction in leukemia burden: 25 mg/kg i.p. three times a week (MWF), NSG or NRG mice. The method, then:
The in vivo efficacy of compounds was assessed in an orthotopic human AML model in NSG (NOD scid gamma, NOD-scid IL2Rg^null) mice that were bred at University of Maryland Baltimore (mating pairs acquired from Jackson Laboratories; Maine). […]. Three days later, engraftment was assessed by imaging on a Xenogen IVIS-2 Imaging System (Alameda) after an intraperitoneal (IP) injection of 150 mg/kg luciferin. Mice were sorted into four or five groups (n = 5) so that mean intensity (i.e., disease burden) was equal. Dosing started on day of sorting. Compounds were dissolved in 85% PBS (pH 7.4) buffer containing 10% DMSO and 5% Cremophore. The vehicle (buffer without compounds) was used as control. Mice were injected 3 to 5 days per week via IP injection. Mice were weighed on day of dosing and imaged once per week. […]. All mice were housed in a 12-h light/dark cycle with access to food and water ad libitum. Studies were performed with Institutional Animal Care and Use Committee (UMB and Purdue University) approval.
[…]. Female mice were dosed daily for 5 days via intraperitoneal injection and then monitored for an additional week for weight loss, a sign of toxicity in mice. […] To evaluate the anti-leukemic efficacy in vivo, six-week-old female NSG or NRG mice were injected intravenously with FLT3-ITD expressing acute myeloid leukemia cells (MV4–11), expressing luciferase. […] Dosing (i.p) with the compounds was then started. The mice were dosed with 25 mg/kg of the compounds three times a week (MWF). […] […].

In data set [3] the target is T1, FLT3 (Homo sapiens, UniProt P36888).
T1 construct: purchased Invitrogen PV3182
T1 sequence (P36888 564-993 limits assumed): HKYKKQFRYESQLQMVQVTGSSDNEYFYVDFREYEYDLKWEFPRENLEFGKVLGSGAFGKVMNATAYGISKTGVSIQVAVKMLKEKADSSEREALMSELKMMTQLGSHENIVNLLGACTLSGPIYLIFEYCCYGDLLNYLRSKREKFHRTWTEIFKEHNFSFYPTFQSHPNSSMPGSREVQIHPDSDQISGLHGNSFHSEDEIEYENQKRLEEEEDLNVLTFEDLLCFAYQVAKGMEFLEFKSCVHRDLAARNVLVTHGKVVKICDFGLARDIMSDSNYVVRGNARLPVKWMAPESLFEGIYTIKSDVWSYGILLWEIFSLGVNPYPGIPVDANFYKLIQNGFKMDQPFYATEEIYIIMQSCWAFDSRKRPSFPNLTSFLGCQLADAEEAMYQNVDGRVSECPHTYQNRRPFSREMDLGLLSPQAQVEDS
Nature of the data set: Cell-free kinase assay, single dose (Reaction Biology, ADP-Glo). It is filed as biochemical. Conditions: inhibitor 500 nM; 100 μM ATP; average of duplicate. The method, then: Cell-free kinase activity assays were performed at Reaction Biology Corporation. […] DMSO was used as control. […] Experiments were performed in duplicates. The concentrations of kinases and substrates used in the assays are indicated on Table S1. Kinase activity was quantified using the ADP-Glo™ Kinase Assay System (Promega, Madison, WI) following the manufacturer's recommendations.

Data set [4] concerns the target T2, Src (Homo sapiens, UniProt P12931).
T2 construct: purchased Invitrogen PR4336E
Nature of the data set: Cell-free kinase assay (Reaction Biology, ADP-Glo). It is filed as biochemical. The note with it: for inhibition at 0.5 µM: inhibitor 500 nM, 100 μM ATP, average of duplicate. On the procedure: as §1

The subject of data set [5] is MOLM-14 (ITD, F691 L) cells. Nature of the data set: Antiproliferative activity (CellTitre-Blue, 72 h). The format is cell-based, human. The note with it: 72 h incubation, triplicates, read-out: IC50 (mean ±SD, nM) MOLM-14 (ITD, F691 L). The method, then: (§2) Cells were seeded into 96-well tissue culture-treated plates at 2.0 × 10^4 cells/mL for up to 24 h. DMSO stock solutions of compounds were serially diluted first in DMSO and subsequently into RPMI before being added to the cell cultures in triplicates, with 10 μM being the highest tested concentration. The plates were incubated for 72 h as above. The CellTitre-Blue assay (Promega, Madison WI) was then added to the cultures and incubated a further 4 h before the fluorescence measured following the manufacturers recommendations. The fluorescence data from compounds were normalized to that DMSO and the resulting data fitted to a non-linear regression equation to obtain IC50 using GraphPad Prism 5.0 Software (La Jolla, CA, USA).

For data set [6], the system named is MOLM-14 cells. Nature of the data set: Antiproliferative activity (CellTitre-Blue, 72 h). It is filed as cell-based, human. The note with it: Homo sapiens, MOLM-14; 72 h incubation, triplicates; read-out: IC50 (mean ±SD, nM) MOLM-14. The method, then:
as §2

The test system of data set [7] is MV4–11 cells. Nature of the data set: Antiproliferative activity (CellTitre-Blue, 72 h). It is filed as cell-based, human. Conditions: Homo sapiens, MV4-11, 72 h, 72 h incubation, triplicates; read-out: IC50 (mean ±SD, nM) MV4–11. On the procedure: as §2
Data set [8] deals with MOLM-14 (ITD, D835Y) cells. Nature of the data set: Antiproliferative activity (CellTitre-Blue, 72 h). It is filed as cell-based, human. The note with it: 72 h incubation, triplicates, read-out: IC50 (mean ±SD, nM) MOLM-14 (ITD, D835Y). The method, then: as §2

Like-named read-outs stand apart in the source and are kept apart here.

T2 sequence (P12931 whole entry): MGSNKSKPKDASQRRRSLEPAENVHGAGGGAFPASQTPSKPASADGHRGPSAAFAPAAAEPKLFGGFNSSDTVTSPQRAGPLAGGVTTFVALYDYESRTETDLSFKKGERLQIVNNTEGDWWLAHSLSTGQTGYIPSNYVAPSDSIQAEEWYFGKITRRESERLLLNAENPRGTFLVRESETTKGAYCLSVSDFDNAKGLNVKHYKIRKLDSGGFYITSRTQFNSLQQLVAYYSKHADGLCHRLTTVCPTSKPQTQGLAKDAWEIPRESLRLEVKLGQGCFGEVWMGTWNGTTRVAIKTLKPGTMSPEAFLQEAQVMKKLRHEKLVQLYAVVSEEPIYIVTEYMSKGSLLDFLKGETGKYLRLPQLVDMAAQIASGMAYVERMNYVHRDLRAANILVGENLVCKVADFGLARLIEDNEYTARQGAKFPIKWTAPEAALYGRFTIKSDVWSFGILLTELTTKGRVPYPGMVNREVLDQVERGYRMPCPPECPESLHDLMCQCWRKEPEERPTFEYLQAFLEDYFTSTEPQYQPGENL

A word on the IC50: it is the concentration that gives 50% inhibition. By inhibition is commonly meant the relative decrease from the control value, in per cent. For the compound `Cc1ncc(C(=O)Nc2ccc(CN3CCN(C)CC3)c(C(F)(F)F)c2)cc1C#Cc1cnc(N)c2ncccc12` [Compound 20], the IC50 in data set [1] is 4.8 nM; in data set [4] (Src 0.6 nM, ATP 100 μM, read-out: IC50 against Src) it was 12.2 nM; in data set [5] (listed as 20 (HSN459)), 0.9 ± 0.004 nM; in data set [6] it was 0.2 ± 0.002 nM; in data set [7], 0.3 ± 0.004 nM; in data set [8] (listed as 20 (HSN459)) it was 4 ± 0.02 nM. Besides, the “body weight in efficacy study” value in data set [2] (25 mg/Kg i.p. three times a week, after one week) was “lost weight”. In data set [2], the “reduction in leukemia burden” value is on record as above 99%. Further, in data set [2] (dose reduced to 10 mg/kg), the “tolerability in efficacy study” value was “tolerable”. In addition, the inhibition at 0.5 µM in data set [3] stood at 97%; in data set [4], 100%.

With `Cc1ncc(C(=O)Nc2ccc(CN3CCN(C)CC3)c(C(F)(F)F)c2)cc1C#Cc1c(N)ncc2ccccc12` [Compound 5], the “reduction in leukemia burden” value in data set [2] is on record as above 99%. For the same compound, the results for the inhibition at 0.5 µM in data set [3] and in data set [4] were 99% and 100%, respectively. The 50% inhibitory concentration (IC50) is 1.5 ± 0.1 nM in data set [5] (Homo sapiens, MOLM-14, 72 h); 2.8 ± 0.02 nM in data set [6]; 0.4 ± 0.004 nM in data set [7]; 13 ± 0.4 nM in data set [8] (Homo sapiens, MOLM-14, 72 h).
